We go through 27 molecules from US8461328B2, “Tricyclic heterocyclic compounds, compositions and methods of use thereof” (Genentech, Inc., priority 2010, dated 2013).

Common to all, as to format: biochemical
For one test, the target named is T1, JAK1 (Homo sapiens, UniProt P23458).
T1 construct: made in house; host or cells: SF9 insect cells (baculovirus)
Put plainly: JAK1 inhibition (Table 4). To be noted: read-out: JAK1 Ki.

The next test addresses T2, TYK2 (Homo sapiens, UniProt P29597).
T2 construct: made in house; host or cells: SF9 insect cells (baculovirus)
T2 sequence (P29597 873-1187): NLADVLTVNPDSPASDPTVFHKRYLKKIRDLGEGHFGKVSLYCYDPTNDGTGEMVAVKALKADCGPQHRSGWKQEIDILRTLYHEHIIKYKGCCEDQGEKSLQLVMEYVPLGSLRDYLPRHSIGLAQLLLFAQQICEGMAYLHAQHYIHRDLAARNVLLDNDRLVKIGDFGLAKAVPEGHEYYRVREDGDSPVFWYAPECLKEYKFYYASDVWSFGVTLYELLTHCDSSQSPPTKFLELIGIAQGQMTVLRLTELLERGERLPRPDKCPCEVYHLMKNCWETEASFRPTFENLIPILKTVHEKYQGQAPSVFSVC
Nature of the test: TYK2 inhibition (Table 4).

For another test, the target named is T3, JAK3 (Homo sapiens, UniProt P52333).
T3 construct: made in house; host or cells: SF9 insect cells (baculovirus)
Put plainly: JAK3 inhibition (Table 4). To be noted: read-out: JAK3 Ki.

In a further test the target is T4, JAK2 (Homo sapiens, UniProt O60674).
T4 construct: made in house; host or cells: SF9 insect cells (baculovirus)
Put plainly: JAK2 inhibition (Table 4). To be noted: read-out: JAK2 Ki.

T1 sequence (P23458 852-1154): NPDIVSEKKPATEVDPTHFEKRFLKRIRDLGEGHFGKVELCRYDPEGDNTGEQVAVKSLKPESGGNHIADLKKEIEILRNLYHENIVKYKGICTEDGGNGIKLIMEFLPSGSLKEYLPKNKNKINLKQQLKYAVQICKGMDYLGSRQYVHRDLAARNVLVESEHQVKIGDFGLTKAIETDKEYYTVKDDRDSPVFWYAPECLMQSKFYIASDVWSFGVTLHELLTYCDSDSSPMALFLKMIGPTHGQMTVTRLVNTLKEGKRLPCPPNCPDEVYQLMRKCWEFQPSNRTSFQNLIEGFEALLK
T4 sequence (O60674 812-1132): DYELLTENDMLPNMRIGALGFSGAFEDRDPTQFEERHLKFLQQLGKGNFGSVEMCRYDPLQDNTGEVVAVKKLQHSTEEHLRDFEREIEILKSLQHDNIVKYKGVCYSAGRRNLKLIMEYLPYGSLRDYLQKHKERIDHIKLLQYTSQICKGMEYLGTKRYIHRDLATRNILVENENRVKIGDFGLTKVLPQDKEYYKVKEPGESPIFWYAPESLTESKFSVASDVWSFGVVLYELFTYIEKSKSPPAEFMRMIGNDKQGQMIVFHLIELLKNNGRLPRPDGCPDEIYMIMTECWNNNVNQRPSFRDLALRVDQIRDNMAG
T3 sequence (P52333 783-1124): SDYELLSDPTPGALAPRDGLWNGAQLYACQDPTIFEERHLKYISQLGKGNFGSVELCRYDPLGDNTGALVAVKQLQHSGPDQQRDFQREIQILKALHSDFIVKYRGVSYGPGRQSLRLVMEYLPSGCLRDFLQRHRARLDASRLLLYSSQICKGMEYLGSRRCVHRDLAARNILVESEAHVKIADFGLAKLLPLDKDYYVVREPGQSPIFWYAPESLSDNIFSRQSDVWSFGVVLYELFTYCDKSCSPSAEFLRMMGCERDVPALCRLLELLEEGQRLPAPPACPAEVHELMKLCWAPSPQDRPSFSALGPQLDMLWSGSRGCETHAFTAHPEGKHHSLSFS

As to `N#Cc1cccc(CN2CCC(n3cnc4cnc5[nH]ccc5c43)CC2)c1` [Example 49, 3-[4-(6H-1,3,5,6-Tetraaza-as-indacen-1-yl)-piperidin-1-ylmethyl]benzonitrile], the Ki (as a rule, the dissociation constant of the complex between target and ligand, obtained from inhibition or displacement) on JAK1 is 0.0003 µM; at TYK2, 0.0357 µM; on JAK3, 0.0265 µM; at JAK2, 0.00098 µM.

As to `c1cncc(CN2CCC(n3cnc4cnc5[nH]ccc5c43)CC2)c1` [Example 50, 1-(1-Pyridin-3-ylmethyl-piperidin-4-yl)-1,6-dihydro-1,3,5,6-tetraaza-as-indacene], the Ki on JAK1 is 0.00248 µM; on TYK2, 0.0888 µM; at JAK3 it was 0.018 µM; at JAK2 it was 0.00484 µM.

`CC(c1ccccc1)N1CCC(n2cnc3cnc4[nH]ccc4c32)CC1` (stereo not drawn) [Example 51, 1-[1-(1-Phenyl-ethyl)-piperidin-4-yl]-1,6-dihydro-1,3,5,6-tetraaza-as-indacene]: the Ki at JAK1 was 0.00768 µM; on TYK2 it was 0.0766 µM; on JAK3 it was 0.137 µM; at JAK2, 0.00669 µM.

Take `N#Cc1ccc(S(=O)(=O)N2CCC(n3cnc4cnc5[nH]ccc5c43)CC2)cc1` [Example 56, 4-[4-(6H-1,3,5,6-Tetraaza-as-indacen-1-yl)-piperidine-1-sulfonyl]benzonitrile]: the Ki on JAK1 was 0.00384 µM; on TYK2, 0.0647 µM; on JAK3 it was 0.337 µM; at JAK2, 0.00997 µM.

As to `CS(=O)(=O)CCN1CCC[C@@H](n2cnc3cnc4[nH]ccc4c32)C1` [Example 57, 1-[(R)-1-(2-Methanesulfonyl-ethyl)-piperidin-3-yl]-1,6-dihydro-1,3,5,6-tetraaza-as-indacene], the Ki was 0.00521 µM at JAK1, 0.0458 µM at TYK2, 0.012 µM on JAK3 and 0.00905 µM on JAK2.

Consider `CS(=O)(=O)CCN1CCC(n2cnc3cnc4[nH]ccc4c32)CC1` [Example 59, 1-[1-(2-Methanesulfonyl-ethyl)-piperidin-4-yl]-1,6-dihydro-1,3,5,6-tetraaza-as-indacene], for which the Ki on JAK1 was determined as 0.00196 µM; on TYK2 it was 0.0305 µM; at JAK3, 0.0277 µM; at JAK2, 0.00601 µM.

As for `CN(C)C(=O)CN1CCC[C@@H](n2cnc3cnc4[nH]ccc4c32)C1` [Example 60, N,N-Dimethyl-2-[(R)-3-(6H-1,3,5,6-tetraaza-as-indacen-1-yl)-piperidin-1-yl]acetamide], the Ki on JAK1 came to 0.135 µM; on TYK2 it was 0.715 µM; on JAK3, 0.625 µM; on JAK2, 0.201 µM.

As for `COCCN1CCC[C@@H](n2cnc3cnc4[nH]ccc4c32)C1` [Example 61, 1-[(R)-1-(2-Methoxy-ethyl)-piperidin-3-yl]-1,6-dihydro-1,3,5,6-tetraaza-as-indacene], the Ki on JAK1 was 0.153 µM; on TYK2, 1.05 µM; on JAK3, 0.22 µM; on JAK2, 0.253 µM.

Take `CN(C)C(=O)CN1CCC(n2cnc3cnc4[nH]ccc4c32)CC1` [Example 62, N,N-Dimethyl-2-[4-(6H-1,3,5,6-tetraaza-as-indacen-1-yl)-piperidin-1-yl]acetamide]: the Ki on JAK1 worked out at 0.0214 µM; on TYK2, 0.225 µM; at JAK3, 0.391 µM; on JAK2, 0.0397 µM.

As to `COCCN1CCC(n2cnc3cnc4[nH]ccc4c32)CC1` [Example 63, 1-[1-(2-Methoxy-ethyl)-piperidin-4-yl]-1,6-dihydro-1,3,5,6-tetraaza-as-indacene], the Ki on JAK1 worked out at 0.00754 µM; on TYK2, 0.0739 µM; at JAK3, 0.0965 µM; at JAK2, 0.012 µM.

Consider `c1cnc(N2CCC(n3cnc4cnc5[nH]ccc5c43)CC2)nc1` [Example 64, 1-(1-Pyrimidin-2-yl-piperidin-4-yl)-1,6-dihydro-1,3,5,6-tetraaza-as-indacene], for which the Ki on JAK1 worked out at 0.0364 µM; on TYK2, 0.495 µM; on JAK3, 0.243 µM; at JAK2, 0.0514 µM.

As for `c1cc(N2CCC(n3cnc4cnc5[nH]ccc5c43)CC2)ncn1` [Example 65, 1-(1-Pyrimidin-4-yl-piperidin-4-yl)-1,6-dihydro-1,3,5,6-tetraaza-as-indacene], the Ki is 0.0149 µM at JAK1, 0.107 µM at TYK2, 0.281 µM on JAK3 and 0.0347 µM on JAK2.

Take `c1ccc(CN2CCC(n3nnc4cnc5[nH]ccc5c43)CC2)cc1` [Example 66, 1-(1-Benzyl-piperidin-4-yl)-1,6-dihydro-1,2,3,5,6-pentaaza-as-indacene]: the Ki on JAK1 worked out at 0.00715 µM; on TYK2, 0.24 µM; on JAK3 it was 0.0683 µM; on JAK2 it was 0.00986 µM.

On to `Fc1cccc(CN2CCC(n3cnc4cnc5[nH]ccc5c43)CC2)c1` [Example 67, 1-[1-(3-Fluoro-benzyl)-piperidin-4-yl]-1,6-dihydro-1,3,5,6-tetraaza-as-indacene], for which the Ki on JAK1 was determined as 0.00075 µM; on TYK2, 0.0236 µM; on JAK3, 0.00948 µM; on JAK2, 0.00116 µM.

As for `Cn1cc(CN2CCC(n3cnc4cnc5[nH]ccc5c43)CC2)cn1` [Example 68], the Ki at JAK1 stood at 0.021 µM; on TYK2, 1.16 µM; at JAK3, 0.354 µM; on JAK2 it was 0.0707 µM.

`O=S(=O)(C1CC1)N1CCC(n2cnc3cnc4[nH]ccc4c32)CC1` [Example 69, 1-(1-Cyclopropanesulfonyl-piperidin-4-yl]-1,6-dihydro-1,3,5,6-tetraaza-as-indacene]: the Ki at JAK1 is 0.00344 µM; at TYK2, 0.0266 µM; at JAK3, 0.0933 µM; on JAK2 it was 0.00441 µM.

As to `O=S(=O)(C1CC1)N1CCC[C@@H](n2cnc3cnc4[nH]ccc4c32)C1` [Example 70, (R)-1-(1-Cyclopropanesulfonyl-piperidin-3-yl]-1,6-dihydro-1,3,5,6-tetraaza-as-indacene], the Ki on JAK1 came to 0.0125 µM; at TYK2, 0.0689 µM; at JAK3, 0.0386 µM; on JAK2, 0.0151 µM.

Regarding `c1cc2c(ncc3ncn([C@@H]4CCCN(C5COC5)C4)c32)[nH]1` [Example 71, (R)-1-(1-Oxetan-3-yl-piperidin-3-yl]-1,6-dihydro-1,3,5,6-tetraaza-as-indacene], the Ki at JAK1 was determined as 0.264 µM; at TYK2 it was 1.68 µM; on JAK3 it was 0.307 µM; on JAK2, 0.378 µM.

`c1cnc(N2CCC(n3cnc4cnc5[nH]ccc5c43)CC2)cn1` [Example 72, 1-(1-Pyrazin-2-yl-piperidin-4-yl]-1,6-dihydro-1,3,5,6-tetraaza-as-indacene]: the Ki on JAK1 worked out at 0.00426 µM; on TYK2 it was 0.0567 µM; at JAK3, 0.0978 µM; at JAK2, 0.0109 µM.

Consider `N#Cc1cccc(S(=O)(=O)N2CCC(n3cnc4cnc5[nH]ccc5c43)CC2)c1` [Example 73, 3-[4-(6H-1,3,5,6-Tetraaza-as-indacen-1-yl)-piperidine-1-sulfonyl]benzonitrile], for which the Ki amounted to 0.00091 µM at JAK1, 0.00682 µM at TYK2, 0.0577 µM on JAK3 and 0.00095 µM at JAK2.

As to `O=C(CN1CCC(n2cnc3cnc4[nH]ccc4c32)CC1)c1ccccc1` [Example 74], the Ki at JAK1 worked out at 0.00125 µM; on TYK2, 0.0142 µM; on JAK3, 0.0319 µM; on JAK2, 0.00298 µM.

For the molecule `O=C(C1CC1)N1CCC[C@@H](n2cnc3cnc4[nH]ccc4c32)C1` [Example 75, Cyclopropyl-[(R)-3-(6H-1,3,5,6-tetraaza-as-indacen-1-yl)-piperidin-1-yl]methanone], the Ki at JAK1 was found to be 0.00589 µM; on TYK2, 0.019 µM; on JAK3, 0.0607 µM; on JAK2, 0.00853 µM.

Regarding `O=C(CS(=O)(=O)c1ccccc1)N1CCC[C@@H](n2cnc3cnc4[nH]ccc4c32)C1` [Example 76, 2-Benzenesulfonyl-1-[(R)-3-(6H-1,3,5,6-tetraaza-as-indacen-1-yl)-piperidin-1-yl]ethanone], the Ki at JAK1 was 0.0517 µM; on TYK2, 0.531 µM; on JAK3, 0.232 µM; at JAK2 it was 0.073 µM.

For the molecule `O=C(CN1CCOCC1)N1CCC(n2cnc3cnc4[nH]ccc4c32)CC1` [Example 77, 2-Morpholin-4-yl-1-[4-(6H-1,3,5,6-tetraaza-as-indacen-1-yl)-piperidin-1-yl]ethanone], the Ki at JAK1 is 0.0646 µM; on TYK2 it was 1.94 µM; at JAK3, 2.16 µM; at JAK2 it was 0.185 µM.

Regarding `CS(=O)(=O)CC(=O)N1CCC[C@@H](n2cnc3cnc4[nH]ccc4c32)C1` [Example 79, 2-Methanesulfonyl-1-[(R)-3-(6H-1,3,5,6-tetraaza-as-indacen-1-yl)-piperidin-1-yl]ethanone], the Ki was 0.0157 µM at JAK1, 0.167 µM at TYK2, 0.0771 µM on JAK3 and 0.0223 µM at JAK2.

On to `c1ccc(CCN2CCC(n3cnc4cnc5[nH]ccc5c43)CC2)cc1` [Example 80, 1-(1-Phenethyl-piperidin-4-yl)-1,6-dihydro-1,3,5,6-tetraaza-as-indacene], for which the Ki is 0.00561 µM on JAK1, 0.106 µM on TYK2, 0.163 µM at JAK3 and 0.0155 µM at JAK2.

As for `c1ccc(CN2[C@@H]3CC[C@H]2C[C@H](n2cnc4cnc5[nH]ccc5c42)C3)cc1` [Example 81], the Ki on JAK1 turned out to be 0.023 µM; at TYK2 it was 0.222 µM; on JAK3 it was 0.297 µM; at JAK2, 0.0158 µM.
